Assay results taken from PMC4336625 (ACS Chemical Biology, 2014).

What was measured:
PldA = PldA (Pseudomonas aeruginosa, UniProt Q9HYC2); format: biochemical
[1] = target: recombinant human NAPE-PLD (Homo sapiens, UniProt Q6IQ20); test: NAPE-PLD activity assay; format: biochemical; conditions: 20 μM
PLD1 [2] = target: T1, PLD1 (Homo sapiens, UniProt Q13393); format: cell-based; conditions: read-out: mammalian PLD1 IC50
T1 sequence (Q13393 1-1074): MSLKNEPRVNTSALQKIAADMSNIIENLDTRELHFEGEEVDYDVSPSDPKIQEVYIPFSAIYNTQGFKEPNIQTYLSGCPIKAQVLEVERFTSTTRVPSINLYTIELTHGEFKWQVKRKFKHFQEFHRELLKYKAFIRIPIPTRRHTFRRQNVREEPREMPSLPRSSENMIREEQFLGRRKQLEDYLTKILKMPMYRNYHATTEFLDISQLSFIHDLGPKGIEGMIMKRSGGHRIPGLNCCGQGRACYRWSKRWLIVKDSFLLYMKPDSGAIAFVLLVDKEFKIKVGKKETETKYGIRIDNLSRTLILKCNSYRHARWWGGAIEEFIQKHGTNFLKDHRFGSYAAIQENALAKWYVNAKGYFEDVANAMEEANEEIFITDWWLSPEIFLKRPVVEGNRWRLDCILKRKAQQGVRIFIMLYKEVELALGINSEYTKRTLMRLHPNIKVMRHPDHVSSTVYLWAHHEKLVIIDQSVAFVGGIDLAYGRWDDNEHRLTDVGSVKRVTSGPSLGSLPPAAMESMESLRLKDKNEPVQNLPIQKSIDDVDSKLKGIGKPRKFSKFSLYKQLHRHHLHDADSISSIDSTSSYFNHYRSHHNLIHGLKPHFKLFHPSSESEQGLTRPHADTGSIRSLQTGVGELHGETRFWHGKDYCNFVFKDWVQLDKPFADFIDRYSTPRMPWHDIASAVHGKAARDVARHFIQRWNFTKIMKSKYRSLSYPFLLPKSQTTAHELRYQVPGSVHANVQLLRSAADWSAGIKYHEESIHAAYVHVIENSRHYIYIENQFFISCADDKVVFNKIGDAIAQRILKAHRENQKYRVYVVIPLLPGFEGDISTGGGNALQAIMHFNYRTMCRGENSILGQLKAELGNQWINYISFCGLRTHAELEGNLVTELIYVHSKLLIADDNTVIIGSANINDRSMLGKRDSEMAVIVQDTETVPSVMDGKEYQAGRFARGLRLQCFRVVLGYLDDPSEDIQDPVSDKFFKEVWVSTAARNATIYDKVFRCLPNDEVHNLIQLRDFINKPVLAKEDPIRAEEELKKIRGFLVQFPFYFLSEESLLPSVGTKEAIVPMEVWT

PLD1 [3] = target: T1, PLD1; conditions: cited from earlier work
PLD2 = PLD2 (Homo sapiens, UniProt O14939); conditions: cited from earlier work
PLD2, sequence (O14939 whole entry): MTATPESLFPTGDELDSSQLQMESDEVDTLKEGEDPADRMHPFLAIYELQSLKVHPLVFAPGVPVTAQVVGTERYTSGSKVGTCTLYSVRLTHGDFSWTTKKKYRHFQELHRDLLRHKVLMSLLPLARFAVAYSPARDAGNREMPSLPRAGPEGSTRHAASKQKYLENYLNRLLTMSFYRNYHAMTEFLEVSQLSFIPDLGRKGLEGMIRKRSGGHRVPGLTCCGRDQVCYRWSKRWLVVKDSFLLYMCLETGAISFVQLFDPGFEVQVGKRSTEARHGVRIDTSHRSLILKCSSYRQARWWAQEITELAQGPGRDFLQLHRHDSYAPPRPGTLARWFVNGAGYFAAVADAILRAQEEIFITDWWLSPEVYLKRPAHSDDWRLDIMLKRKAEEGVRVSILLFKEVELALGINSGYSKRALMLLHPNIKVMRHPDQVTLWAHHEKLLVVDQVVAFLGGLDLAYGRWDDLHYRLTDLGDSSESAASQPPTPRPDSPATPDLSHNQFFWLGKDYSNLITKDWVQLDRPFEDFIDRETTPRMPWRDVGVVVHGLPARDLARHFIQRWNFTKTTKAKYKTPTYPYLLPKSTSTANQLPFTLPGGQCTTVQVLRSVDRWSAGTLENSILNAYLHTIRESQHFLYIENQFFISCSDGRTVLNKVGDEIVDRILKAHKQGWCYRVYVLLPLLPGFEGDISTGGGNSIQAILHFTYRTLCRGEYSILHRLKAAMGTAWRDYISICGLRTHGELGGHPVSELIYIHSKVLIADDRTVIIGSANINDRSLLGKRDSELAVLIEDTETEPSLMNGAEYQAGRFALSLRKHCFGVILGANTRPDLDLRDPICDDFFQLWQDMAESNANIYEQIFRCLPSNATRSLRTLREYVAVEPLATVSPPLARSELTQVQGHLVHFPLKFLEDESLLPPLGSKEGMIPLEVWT

PldA, sequence (Q9HYC2 1-1099): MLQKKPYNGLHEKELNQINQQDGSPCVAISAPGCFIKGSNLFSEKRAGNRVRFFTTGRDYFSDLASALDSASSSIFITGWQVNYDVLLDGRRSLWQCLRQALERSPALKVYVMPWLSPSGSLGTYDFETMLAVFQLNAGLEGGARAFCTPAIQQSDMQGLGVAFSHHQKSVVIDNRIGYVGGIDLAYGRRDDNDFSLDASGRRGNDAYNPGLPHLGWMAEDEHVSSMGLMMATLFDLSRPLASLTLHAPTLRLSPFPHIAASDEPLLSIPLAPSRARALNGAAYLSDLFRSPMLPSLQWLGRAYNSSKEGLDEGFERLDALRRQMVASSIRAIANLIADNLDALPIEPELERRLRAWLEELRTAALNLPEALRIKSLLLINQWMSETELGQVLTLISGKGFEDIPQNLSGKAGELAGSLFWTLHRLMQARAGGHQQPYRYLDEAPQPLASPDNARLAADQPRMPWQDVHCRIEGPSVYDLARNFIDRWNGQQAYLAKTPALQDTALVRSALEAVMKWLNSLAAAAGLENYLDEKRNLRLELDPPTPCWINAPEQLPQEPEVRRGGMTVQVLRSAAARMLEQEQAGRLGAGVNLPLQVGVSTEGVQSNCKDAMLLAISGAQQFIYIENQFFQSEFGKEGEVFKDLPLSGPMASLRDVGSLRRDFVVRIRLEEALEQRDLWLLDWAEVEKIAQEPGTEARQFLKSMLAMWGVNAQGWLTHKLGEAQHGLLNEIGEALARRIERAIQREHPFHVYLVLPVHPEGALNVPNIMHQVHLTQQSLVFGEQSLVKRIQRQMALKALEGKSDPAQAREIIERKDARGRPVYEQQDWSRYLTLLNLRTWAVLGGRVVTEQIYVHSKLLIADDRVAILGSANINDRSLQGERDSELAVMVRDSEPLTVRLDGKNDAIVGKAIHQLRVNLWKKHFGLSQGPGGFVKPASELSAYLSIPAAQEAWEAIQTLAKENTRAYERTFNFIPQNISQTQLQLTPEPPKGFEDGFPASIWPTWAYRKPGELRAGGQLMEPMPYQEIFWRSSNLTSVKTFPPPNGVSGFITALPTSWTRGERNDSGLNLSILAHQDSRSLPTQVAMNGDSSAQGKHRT
recombinant human NAPE-PLD, sequence (Q6IQ20 whole entry): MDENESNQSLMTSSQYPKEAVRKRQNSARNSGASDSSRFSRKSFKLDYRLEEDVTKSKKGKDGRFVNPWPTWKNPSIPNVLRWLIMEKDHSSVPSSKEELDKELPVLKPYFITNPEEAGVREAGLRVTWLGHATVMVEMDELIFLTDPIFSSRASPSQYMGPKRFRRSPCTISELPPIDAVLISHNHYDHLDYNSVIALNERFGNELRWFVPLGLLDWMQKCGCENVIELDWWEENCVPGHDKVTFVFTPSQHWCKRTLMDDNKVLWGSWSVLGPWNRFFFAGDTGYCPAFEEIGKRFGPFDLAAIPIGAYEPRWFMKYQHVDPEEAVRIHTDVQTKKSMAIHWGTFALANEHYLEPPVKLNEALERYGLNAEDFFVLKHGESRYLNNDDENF

Row | Compound | fold more potent at PldA than inhibitors 2, 3 and 1 (PldA) | inhibition of NAPE-PLD activity, single point [1] | IC50 (PLD1 [2]) [µM] | PLD1 IC50 (PLD1 [3]) | PLD2 IC50 (PLD2)
1 | O=C(c1ccc(OCCN2CCCCC2)cc1)c1c(-c2ccc(O)cc2)sc2cc(O)ccc12 [Compound 7, raloxifene] | 5- to 10 fold | not to inhibit |  |  | 
2 | CC/C(=C(\c1ccccc1)c1ccc(OCCN(C)C)cc1)c1ccccc1 [Compound 8, tamoxifen] |  |  | > 20 | no effect | stimulated
